In ChEMBL document CHEMBL1129008, “Novel 1, 2, 4-oxadiazoles as potent and selective histamine H3 receptor antagonists” (Bioorg Med Chem Lett, 1996):

How the values were obtained:
[1] = biological target: Histamine H2 receptor (Cavia porcellus) (UniProt P47747); assay: Antagonistic activity at H2 receptor was assessed against histamine-induced tachycardia in guinea pig isolated atria; type: functional
[2] = biological target: Histamine H1 receptor (Cavia porcellus) (UniProt P31389); assay: Antagonistic activity against H1 receptor was determined in histamine induced contractions of guinea pig isolated whole ileum; type: functional, tissue-based
[3] = biological target: Histamine H3 receptor (Cavia porcellus) (UniProt Q9JI35); assay: Antagonistic activity at H3 receptor was assessed on guinea-pig longitudinal muscle strips subjected to electrical field stimulation; type: functional
Histamine H3 receptor = Histamine H3 receptor (Rattus norvegicus, UniProt Q9QYN8); assay: Binding affinity against H3 receptor in rat cerebral cortex membranes was evaluated using [3H]N-methyl-histamine as radioligand; type: cell membranes, Membrane
Rattus norvegicus [4] = assay: Antagonism of ex vivo binding to rat cortex/hippocampus was determined using [3H]-N-alpha-Methylhistamine, after peroral administration; type: functional; details: po
Rattus norvegicus [5] = assay: Compound was tested in vivo for (R)-alpha- methyl-histamine induced dipsogenicity in rats, upon subcutaneous administration; type: functional; details: sc
Rattus norvegicus [6] = assay: Antagonism of ex vivo binding to rat cortex/hippocampus was determined using [3H]-N-alpha-Methylhistamine, after subcutaneous administration; type: functional; details: sc
Rattus norvegicus [7] = assay: Compound was tested in vivo for (R)-alpha- methyl-histamine induced dipsogenicity in rats, upon peroral administration; type: functional; details: po

Sequence of Histamine H2 receptor (Cavia porcellus) (P47747 whole entry): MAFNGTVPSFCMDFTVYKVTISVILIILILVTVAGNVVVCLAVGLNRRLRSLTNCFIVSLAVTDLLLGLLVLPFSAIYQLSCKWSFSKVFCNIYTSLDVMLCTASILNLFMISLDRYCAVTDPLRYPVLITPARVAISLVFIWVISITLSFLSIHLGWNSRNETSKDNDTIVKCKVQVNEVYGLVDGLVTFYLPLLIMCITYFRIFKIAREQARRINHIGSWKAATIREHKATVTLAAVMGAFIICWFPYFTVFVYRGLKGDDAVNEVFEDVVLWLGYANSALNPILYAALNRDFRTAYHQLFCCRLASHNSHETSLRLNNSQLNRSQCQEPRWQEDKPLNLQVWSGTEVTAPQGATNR
Sequence of Histamine H3 receptor (Q9QYN8 whole entry): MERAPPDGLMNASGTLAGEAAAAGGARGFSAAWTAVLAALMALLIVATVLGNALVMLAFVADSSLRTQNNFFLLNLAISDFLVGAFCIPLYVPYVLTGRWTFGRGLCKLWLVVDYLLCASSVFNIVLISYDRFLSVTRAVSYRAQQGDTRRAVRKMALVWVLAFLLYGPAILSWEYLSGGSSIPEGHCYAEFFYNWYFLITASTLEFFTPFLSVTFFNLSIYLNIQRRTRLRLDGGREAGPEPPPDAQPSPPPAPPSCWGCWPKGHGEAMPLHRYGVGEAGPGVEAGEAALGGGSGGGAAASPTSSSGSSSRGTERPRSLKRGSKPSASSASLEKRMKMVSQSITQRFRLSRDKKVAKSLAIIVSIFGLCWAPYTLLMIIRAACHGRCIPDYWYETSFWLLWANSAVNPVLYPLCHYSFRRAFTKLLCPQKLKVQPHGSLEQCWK
Sequence of Histamine H3 receptor (Cavia porcellus) (Q9JI35 whole entry): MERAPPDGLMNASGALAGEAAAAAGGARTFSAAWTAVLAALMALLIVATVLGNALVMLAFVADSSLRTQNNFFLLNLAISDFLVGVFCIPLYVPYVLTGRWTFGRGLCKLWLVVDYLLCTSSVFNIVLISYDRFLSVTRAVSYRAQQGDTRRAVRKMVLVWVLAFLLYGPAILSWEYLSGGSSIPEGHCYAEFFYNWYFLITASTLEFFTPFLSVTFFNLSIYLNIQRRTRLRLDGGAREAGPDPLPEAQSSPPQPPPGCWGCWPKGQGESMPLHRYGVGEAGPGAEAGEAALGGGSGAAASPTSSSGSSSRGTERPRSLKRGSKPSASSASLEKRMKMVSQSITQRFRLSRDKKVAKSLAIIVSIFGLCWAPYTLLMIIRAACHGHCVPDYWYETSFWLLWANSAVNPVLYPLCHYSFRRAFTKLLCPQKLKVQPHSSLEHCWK
Sequence of Histamine H1 receptor (Cavia porcellus) (P31389 whole entry): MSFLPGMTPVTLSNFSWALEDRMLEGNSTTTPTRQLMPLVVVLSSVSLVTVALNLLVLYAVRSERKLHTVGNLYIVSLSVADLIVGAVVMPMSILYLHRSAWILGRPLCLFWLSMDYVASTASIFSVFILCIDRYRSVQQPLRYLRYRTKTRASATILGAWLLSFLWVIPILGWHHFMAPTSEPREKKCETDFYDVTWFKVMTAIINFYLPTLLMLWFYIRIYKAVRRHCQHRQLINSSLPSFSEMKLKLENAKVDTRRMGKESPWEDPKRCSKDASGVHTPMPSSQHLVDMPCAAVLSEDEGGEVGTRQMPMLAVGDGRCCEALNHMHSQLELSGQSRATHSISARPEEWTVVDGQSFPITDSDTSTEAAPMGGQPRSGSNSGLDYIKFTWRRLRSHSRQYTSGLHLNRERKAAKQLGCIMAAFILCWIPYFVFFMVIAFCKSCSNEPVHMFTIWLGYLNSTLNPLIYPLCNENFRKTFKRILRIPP

Clc1ccc(CCc2noc(CCc3c[nH]cn3)n2)cc1
pKB [1]: < 5 | pKB [2]: < 5 | pKB [3]: 7.7 | Ki (Histamine H3 receptor): 20 nM

Clc1ccc(Cc2noc(Cc3c[nH]cn3)n2)cc1
pKB [3]: 7.2 | Ki (Histamine H3 receptor): 25.1 nM

Clc1ccc(Cc2n[nH]c(CCCc3c[nH]cn3)n2)cc1
pKB [1]: < 5 | pKB [2]: < 5 | pKB [3]: 7.4 | Ki (Histamine H3 receptor): 12.6 nM

Ic1ccc(Cc2noc(CCc3c[nH]cn3)n2)cc1
pKB [3]: 7.1 | Ki (Histamine H3 receptor): 6.31 nM

Fc1ccc(Cc2noc(CCc3c[nH]cn3)n2)cc1
pKB [3]: 8.4 | Ki (Histamine H3 receptor): 10 nM

FC(F)(F)c1ccc(Cc2noc(CCc3c[nH]cn3)n2)cc1
pKB [3]: 8.3 | Ki (Histamine H3 receptor): 7.94 nM

Clc1ccc(Cc2nnc(CCc3c[nH]cn3)s2)cc1
pKB [1]: 5.8 | pKB [3]: 7 | Ki (Histamine H3 receptor): 100 nM

Cn1nc(CCc2c[nH]cn2)nc1Cc1ccc(Cl)cc1
pKB [3]: 5.8 | Ki (Histamine H3 receptor): 126 nM

Clc1ccc(Cc2noc(CCCc3cnc[nH]3)n2)cc1
Ki (Histamine H3 receptor): 25.1 nM

Clc1ccc(Cc2nc(CCc3c[nH]cn3)no2)cc1
pKB [1]: 5.6 | pKB [3]: 7 | Ki (Histamine H3 receptor): 20 nM

CS(=O)(=O)Nc1ccc(Cc2noc(CCc3c[nH]cn3)n2)cc1
Ki (Histamine H3 receptor): 1260 nM

Clc1ccc(CCc2noc(Cc3c[nH]cn3)n2)cc1
Ki (Histamine H3 receptor): 251 nM

Clc1ccc(Cc2noc(CCc3c[nH]cn3)n2)cc1Cl
pKB [3]: 8 | Ki (Histamine H3 receptor): 3.16 nM

c1ccc(-c2ccc(Cc3noc(CCc4c[nH]cn4)n3)cc2)cc1
pKB [3]: 6.6 | Ki (Histamine H3 receptor): 63.1 nM

Clc1ccc(Cc2noc(CCCc3c[nH]cn3)n2)cc1
pKB [1]: < 5 | pKB [2]: < 5 | pKB [3]: 6.8

CSc1ccc(Cc2noc(CCc3c[nH]cn3)n2)cc1
Ki (Histamine H3 receptor): 25.1 nM

CS(=O)(=O)c1ccc(Cc2noc(CCc3c[nH]cn3)n2)cc1
Ki (Histamine H3 receptor): 316 nM

COc1ccc(Cc2noc(CCc3c[nH]cn3)n2)cc1
pKB [3]: 6.5 | Ki (Histamine H3 receptor): 39.8 nM

Clc1ccc(Cc2csc(CCc3c[nH]cn3)n2)cc1
pKB [3]: 7.3 | Ki (Histamine H3 receptor): 200 nM

Clc1ccc(Cc2noc(CCc3c[nH]cn3)n2)cc1 [GR-175737]
ED50 (Rattus norvegicus [4]): 1.2 mg/kg | ED50 (Rattus norvegicus [5]): 1 mg/kg | ED50 (Rattus norvegicus [6]): 1.4 mg/kg

Clc1ccc(Cc2n[nH]c(CCc3c[nH]cn3)n2)cc1
pKB [3]: 5.7 | Ki (Histamine H3 receptor): 200 nM

S=C(NC1CCCCC1)N1CCC(c2cnc[nH]2)CC1 [THIOPERAMIDE]
ED50 (Rattus norvegicus [4]): 6 mg/kg | pKB [1]: < 5 | ED50 (Rattus norvegicus [5]): 0.8 mg/kg | pKB [2]: < 5 | ED50 (Rattus norvegicus [6]): 5.1 mg/kg | pKB [3]: 8.3 | ED50 (Rattus norvegicus [7]): 0.8 mg/kg

N=C(NCc1ccc(Cl)cc1)SCCCc1c[nH]cn1 [CLOBENPROPIT]
ED50 (Rattus norvegicus [4]): > 30 mg/kg | pKB [1]: < 6 | ED50 (Rattus norvegicus [5]): 1.3 mg/kg | pKB [2]: < 6 | ED50 (Rattus norvegicus [6]): 10.5 mg/kg | pKB [3]: 9.9 | ED50 (Rattus norvegicus [7]): 2.4 mg/kg

C[S+]([O-])c1ccc(Cc2noc(CCc3c[nH]cn3)n2)cc1 (stereo not given)
Ki (Histamine H3 receptor): 2510 nM
